{
  "source": "paper PMC4586518",
  "about": "“Melanin production through novel processing of proopiomelanocortin in the extracellular compartment of the auricular skin of C57BL/6 mice after UV-irradiation” (Scientific Reports, 2015)",
  "key": {"MC-1R [1]": {"biological_target": "T1, MC-1R (Mus musculus, UniProt Q01727)", "T1 construct": "Mouse melanoma cell line B16[43], which express MC-1R and produce melanin; host or cells: B16 mouse melanoma cells (adherent, whole cells)", "T1 sequence (Q01727 whole entry)": "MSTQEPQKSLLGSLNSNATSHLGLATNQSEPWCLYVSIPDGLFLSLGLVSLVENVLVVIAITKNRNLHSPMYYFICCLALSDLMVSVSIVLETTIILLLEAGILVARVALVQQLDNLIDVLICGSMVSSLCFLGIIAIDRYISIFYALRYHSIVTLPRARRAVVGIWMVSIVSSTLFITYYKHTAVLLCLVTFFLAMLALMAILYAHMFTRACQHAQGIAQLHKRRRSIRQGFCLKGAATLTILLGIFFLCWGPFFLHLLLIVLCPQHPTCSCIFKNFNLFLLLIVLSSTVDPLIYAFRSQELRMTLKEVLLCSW", "test": "Inhibition of α-MSH- or ACTH(1–8)-induced melanin production in B16 cells by MC-1R antagonist", "assay_type": "cell-based", "settings": "dose-dependent effect of antagonist, n = 4", "protocol": "Figure 3 ACTH(1–8)-mediated melanin production via the MC-1R. (A). The Radioreceptor assay of ACTH(1–8) (open circle) and α-MSH (closed circle) in mouse melanoma B16 cells. B16 mouse melanoma cells were incubated with [^125I]-α-MSH and 10^−7–10^−11 M ACTH(1–8) or 10^−6–10^−11 M α-MSH. The receptor binding of [^125I]-α-MSH was expressed as 100% in the absence of α-MSH and 0% in the presence of 1 μM α-MSH and calculated as relative activity. (B). ACTH(1–8)- and α-MSH-mediated melanin production. B16 mouse melanoma cells were incubated with 10^−7–10^−11 M ACTH(1–8) (open circle) or 10^−6–10^−11 M α-MSH (closed circle). Melanin levels are expressed as 100% and 0% in the presence of 1 μM α-MSH and absence of α-MSH, respectively, and calculated as the relative activity. C. […] Melanin levels are expressed as 100% and 0% in the presence of 1 μM α-MSH and absence of α-MSH, respectively, and calculated as the relative activity.\nMelanin production activity was performed as follows: B16 cells and normal human melanocytes (TOYOBO. Osaka, Japan) were seeded at the density of 1 × 10[5] cells in 24-well plates and allowed to attach overnight. […] Cells were solubilized in 1 M NaOH at 60°C, and melanin content was measured spectrophotometrically at 475 nm. Melanin levels were expressed as 100% and 0% in the presence of 1 μM α-MSH and absence of α-MSH, respectively. […]"}, "frog skin": {"system": "frog skin", "set-up": "method as in PMID 2822931", "settings": "cited from earlier work"}, "lizard skin": {"system": "lizard skin", "set-up": "method as in PMID 2537778", "settings": "cited from earlier work"}, "melanin production": {"system": "melanin production", "settings": "bioassay studies on melanin production; cited from earlier work"}, "mouse melanoma B16 cells": {"system": "mouse melanoma B16 cells", "settings": "72 h", "protocol": "(B). […] C. […] Each point and line represents the mean ± SEM (n = 4).\nMelanin production activity was performed as follows: B16 cells and normal human melanocytes (TOYOBO. Osaka, Japan) were seeded at the density of 1 × 10[5] cells in 24-well plates and allowed to attach overnight. […] Cells were solubilized in 1 M NaOH at 60°C, and melanin content was measured spectrophotometrically at 475 nm."}, "MC-1R [2]": {"system": "MC-1R", "set-up": "method as in 2 sources, ref 23 = [23]; PMID 17317724; doi:10.1096/fj.06-7398com; Rousseau K. et al. Proopiomelanocortin (POMC), the ACTH/melanocortin precursor, is secreted by human epidermal keratinocytes and melanocytes and stimulates melanogenesis . FASEB J 21 , 1844 – 1856 ( 2 ||| ref 34 = [34]; PMID 1556905; doi:10.1016/0024-3205(92)90347-r; Slominski. A. et al. Melanotropic activity of gamma MSH peptides in melanoma cells . Life Sci , 50 , 1103 – 1108 ( 1992 ). 1556905 10.1016/0024-3205(92)90347-r", "settings": "cited from earlier work", "text": "To clarify the mechanism of melanin production after UV-irradiation, we assessed the expression of POMC and POMC-derived peptides after UV-irradiation to the skin of the murine auricle."}, "MC-1R [3]": {"system": "MC-1R", "settings": "cited from earlier work", "text": "Melanin plays an important role in protecting skin after UV-irradiation. α-MSH is a major catalyst for melanogenesis in the skin following UV-irradiation. α-MSH-LI and ACTH-LI may be present in culture media of normal keratinocytes, fibroblasts, melanocytes, and their cell extracts. Although POMC and POMC-derived peptides such as ACTH and α-MSH are released from the intermedia of the pituitary, it is unlikely that pituitary secretions contribute to local pigmentation. In the present report, POMC-related peptides were detected in the UV-irradiated auricle ... || Structure-activity analyses of α-MSH have reported information on the essential sequence required for MC-1R binding and melanin production. […] However, Ac-His-Phe-Arg-Trp-NH2 had 400,000-fold less activity (EC50 20 μM) than α-MSH in a frog skin bioassay[31] and approximately 7,000-fold less activity (EC50 1 μM) in a lizard skin bioassay. Furthermore, the N-terminal region of α-MSH is ..."}},
  "note": "pEC50: −log10 of the molar value. Entries after “also recorded” stand apart in the source; their conditions may differ. No end group written: not given here.",
  "data": [
    {"substance": "ASP(87–132)-NH2: a MC-1R antagonist (TPLSAPCVATRNSCKPPAPACCDPCASCQCRFFRSACSCRVLSLNC-NH2; cysteine pairing not given here; UniProt P42127 87-132, looked up, fragment)", "values": [
      {"measurement": "effect on ACTH(1–8)-mediated melanin production", "setting": "MC-1R [1]; 10^−7 M ACTH(1–8)", "result": "competitively attenuated; also recorded: decreased both ACTH(1–8)- and α-MSH-mediated melanogenesis"},
      {"measurement": "effect on α-MSH-mediated melanin production", "setting": "MC-1R [1]; 10^−8 M α-MSH", "result": "decreased both ACTH(1–8)- and α-MSH-mediated melanogenesis"}
    ]},
    {"substance": "Ac-His-Phe-Arg-Trp-NH2", "values": [
      {"measurement": "pEC50", "setting": "frog skin; frog skin, read-out: EC50, frog skin bioassay", "result": 4.70},
      {"measurement": "fold less activity than α-MSH, frog skin bioassay", "setting": "frog skin; relative to α-MSH", "result": "400,000 fold"},
      {"measurement": "pEC50", "setting": "lizard skin; lizard skin, read-out: EC50, lizard skin bioassay", "result": 6.00},
      {"measurement": "fold less activity than α-MSH, lizard skin bioassay", "setting": "lizard skin; relative to α-MSH", "result": "approximately 7,000 fold"},
      {"measurement": "melanotropic response", "setting": "melanin production", "result": "minimal synthetic fragment capable of eliciting a melanotropic response"}
    ]},
    {"substance": "SYSMEHFR [ACTH(1–8)]", "values": [
      {"measurement": "pEC50", "setting": "mouse melanoma B16 cells", "result": 7.10}
    ]},
    {"substance": "adrenocorticotropic hormone (SYSMEHFRWGKPVGKKRRPVKVYPNGAEDESAEAFPLEF; Corticotropin; UniProt P01189 138-176, looked up) [ACTH, intermediate form of α-MSH, produced from POMC; 4.5 kDa]", "values": [
      {"measurement": "agonism at MC-1R", "setting": "MC-1R [2]; MC1-R", "result": "known agonists"}
    ]},
    {"substance": "γ-MSH", "values": [
      {"measurement": "antagonism against MC-1R", "setting": "MC-1R [2]", "result": "competitive antagonist against MC-1R"},
      {"measurement": "potency when binding to MC-1R", "setting": "MC-1R [2]; compared with ACTH(1–8)", "result": "potent when binding to MC-1R, but at low potency levels similar to ACTH(1–8)"},
      {"measurement": "melanin production", "setting": "MC-1R [3]", "result": "increases melanin production"}
    ]}
  ]
}
